The results in this text go back to ChEMBL document CHEMBL5331134, “Identification of Brain-Penetrant ATP-Competitive mTOR Inhibitors for CNS Syndromes” (J Med Chem, 2023).

Structures are written as SMILES.

Data set [1] is described as follows: In vivo inhibition of phosphorylation of S6 at serine 240/244 residues in C57BL/6 mouse brain at 10 to 30 mg/kg, po measured after 1 to 3 hrs by Western blotting analysis. Format: organism-based. The conditions noted are these: dose lower 10 mg/kg, time lower 1 hrs, dose upper 30 mg/kg, time upper 3 hrs.
The nature of data set [2]: Half life in Beagle dog at 1 mg/kg, po and 0.3 mg/kg, iv measured upto 24 hrs by LC/MS/MS analysis. The conditions noted are these: in vivo. Format: ADME, organism-based, Canis lupus familiaris.
Data set [3] can be described thus: Volume of distribution at steady state in Beagle dog at 1 mg/kg, po and 0.3 mg/kg, iv measured upto 24 hrs by LC/MS/MS analysis. Format: ADME, organism-based, Canis lupus familiaris. The conditions noted are these: in vivo.
The nature of data set [4]: In vivo inhibition of phosphorylation of AKT at serine 473 residues in C57BL/6 mouse brain at 10 to 30 mg/kg, po measured after 3 hrs by Western blotting analysis. Format: organism-based. The conditions noted are these: dose 10-30 mg/kg.
The nature of data set [5]: AUC(0 to t) in Beagle dog at 1 mg/kg, po measured upto 24 hrs by LC/MS/MS analysis. Format: ADME, organism-based, Canis lupus familiaris. Also noted: time < 24 hrs, dose 1 mg/kg, route po. The conditions noted are these: in vivo.
Data set [6] in a line: Cmax in cynomolgus monkey at 0.3 mg/kg, po measured upto 24 hrs by LC/MS/MS analysis. Format: ADME, organism-based, Macaca fascicularis. Also noted: dose 0.3 mg/kg, time < 24 hrs, route po. The conditions noted are these: in vivo.
Data set [7] can be described thus: AUC(0 to t) in cynomolgus monkey at 0.3 mg/kg, po measured upto 24 hrs by LC/MS/MS analysis. Also noted: dose 0.3 mg/kg, time < 24 hrs, route po. Format: ADME, organism-based, Macaca fascicularis. The conditions noted are these: in vivo.
Data set [8] can be described thus: In vivo inhibition of phosphorylation of AKT at serine 473 residues in C57BL/6 mouse brain at 10 to 30 mg/kg, po measured after 24 hrs by Western blotting analysis. Format: organism-based. The conditions noted are these: dose 10-30 mg/kg.
Data set [9] is described as follows: Tmax in Beagle dog at 1 mg/kg, po and 0.3 mg/kg, iv measured upto 24 hrs by LC/MS/MS analysis. Format: ADME, organism-based, Canis lupus familiaris. The conditions noted are these: in vivo.
Data set [10] can be described thus: Clearance in C57BL/6 mouse at 1 mg/kg, iv and 3 mg/kg, ip measured upto 24 hrs by HPLC-MS analysis. Format: ADME, organism-based. The conditions noted are these: in vivo.
A short description of data set [11]: Bioavailability in Beagle dog at 1 mg/kg, po and 0.3 mg/kg, iv measured upto 24 hrs by LC/MS/MS analysis. Format: ADME, organism-based, Canis lupus familiaris. The conditions noted are these: in vivo.
Data set [12] is described as follows: Bioavailability in cynomolgus monkey at 1 mg/kg, po and 0.1 mg/kg, iv measured upto 24 hrs by LC/MS/MS analysis. Format: ADME, organism-based, Macaca fascicularis. The conditions noted are these: in vivo.
Data set [13] can be described thus: Drug concentration in C57BL/6 mouse brain at 3 mg/kg, po measured after 1 hr. Format: ADME, organism-based. The conditions noted are these: read-out: Ct.
Data set [14] in a line: Drug concentration in C57BL/6 mouse brain at 30 mg/kg, po measured after 8 hrs. Format: ADME, organism-based. The conditions noted are these: read-out: Ct.
Data set [15] can be described thus: Tmax in cynomolgus monkey at 1 mg/kg, po and 0.1 mg/kg, iv measured upto 24 hrs by LC/MS/MS analysis. Format: ADME, organism-based, Macaca fascicularis. The conditions noted are these: in vivo.
Data set [16] in a line: Drug concentration in C57BL/6 mouse plasma at 3 mg/kg, po measured after 8 hrs. Format: ADME, organism-based.
A short description of data set [17]: Drug concentration in C57BL/6 mouse brain at 1 mg/kg, po measured after 1 hr. The conditions noted are these: read-out: Ct. Format: ADME, organism-based.
A short description of data set [18]: Cmax in cynomolgus monkey at 1 mg/kg, po measured upto 24 hrs by LC/MS/MS analysis. Format: ADME, organism-based, Macaca fascicularis. The conditions noted are these: in vivo. Also noted: time < 24 hrs, dose 1 mg/kg, route po.
Data set [19] in a line: Drug concentration in C57BL/6 mouse brain at 10 mg/kg, po measured after 24 hrs. Format: ADME, organism-based. The conditions noted are these: read-out: Ct.
A short description of data set [20]: In vivo inhibition of phosphorylation of S6 at serine 240/244 residues in C57BL/6 mouse brain at 3 to 10 mg/kg, po measured after 8 hrs by Western blotting analysis. Format: organism-based. The conditions noted are these: dose 3-10 mg/kg.
A short description of data set [21]: Ratio of drug concentration in brain to plasma in C57BL/6 mouse at 3 mg/kg, po measured at 3 hrs. Format: ADME, organism-based. The conditions noted are these: read-out: BPR.
The nature of data set [22]: Half life in cynomolgus monkey at 1 mg/kg, po and 0.1 mg/kg, iv measured upto 24 hrs by LC/MS/MS analysis. Format: ADME, organism-based, Macaca fascicularis. The conditions noted are these: in vivo.
Data set [23] is described as follows: Drug concentration in C57BL/6 mouse brain at 1 mg/kg, po measured after 3 hrs. The conditions noted are these: read-out: Ct. Format: ADME, organism-based.
A short description of data set [24]: AUC(0 to t) in cynomolgus monkey at 0.1 mg/kg, iv measured upto 24 hrs by LC/MS/MS analysis. Also noted: dose 0.1 mg/kg, time < 24 hrs, route iv. The conditions noted are these: in vivo. Format: ADME, organism-based, Macaca fascicularis.
Data set [25] can be described thus: Ratio of drug concentration in brain to plasma in C57BL/6 mouse at 10 mg/kg, po measured at 24 hrs. The conditions noted are these: brain and plasma, read-out: BPR. Format: ADME, organism-based.
Data set [26] in a line: Drug concentration in C57BL/6 mouse plasma at 3 mg/kg, po measured after 1 hr. Format: ADME, organism-based.
A short description of data set [27]: Drug concentration in C57BL/6 mouse plasma at 1 mg/kg, po measured after 3 hrs. Format: ADME, organism-based.
The nature of data set [28]: Ratio of drug concentration in brain to plasma in C57BL/6 mouse at 3 mg/kg, po measured at 8 hrs. The conditions noted are these: read-out: BPR. Format: ADME, organism-based.
A short description of data set [29]: Ratio of drug concentration in brain to plasma in C57BL/6 mouse at 1 mg/kg, po measured after 24 hrs. Format: ADME, organism-based. The conditions noted are these: read-out: BPR.
Data set [30] is described as follows: Drug concentration in C57BL/6 mouse plasma at 1 mg/kg, po measured after 8 hrs. Format: ADME, organism-based.
The nature of data set [31]: In vivo inhibition of phosphorylation of AKT at serine 473 residues in C57BL/6 mouse brain at 30 mg/kg, po measured after 24 hrs by Western blotting analysis. Format: organism-based.
A short description of data set [32]: Drug concentration in C57BL/6 mouse brain at 1 mg/kg, po measured after 8 hrs. The conditions noted are these: read-out: Ct. Format: ADME, organism-based.
Data set [33] in a line: Drug concentration in C57BL/6 mouse plasma at 1 mg/kg, po measured after 24 hrs. Format: ADME, organism-based.
Data set [34] can be described thus: Volume of distribution at steady state in cynomolgus monkey at 1 mg/kg, po and 0.1 mg/kg, iv measured upto 24 hrs by LC/MS/MS analysis. Format: ADME, organism-based, Macaca fascicularis. The conditions noted are these: in vivo.
A short description of data set [35]: Drug concentration in C57BL/6 mouse brain at 3 mg/kg, po measured after 8 hrs. Format: ADME, organism-based. The conditions noted are these: read-out: Ct.
Data set [36] is described as follows: Ratio of drug concentration in brain to plasma in C57BL/6 mouse at 1 mg/kg, po measured at 8 hrs. Format: ADME, organism-based. The conditions noted are these: read-out: BPR.
Data set [37] is described as follows: In vivo inhibition of phosphorylation of S6 at serine 240/244 residues in C57BL/6 mouse brain at 30 mg/kg, po measured after 24 hrs by Western blotting analysis. Format: organism-based.
Data set [38] is described as follows: Drug concentration in C57BL/6 mouse plasma at 3 mg/kg, po measured after 24 hrs. Format: ADME, organism-based.
The nature of data set [39]: Drug concentration in C57BL/6 mouse plasma at 3 mg/kg, po measured after 3 hrs. Format: ADME, organism-based.
Data set [40] is described as follows: Drug concentration in C57BL/6 mouse brain at 3 mg/kg, po measured after 24 hrs. Format: ADME, organism-based. The conditions noted are these: read-out: Ct.
Data set [41] in a line: Ratio of drug concentration in brain to plasma in C57BL/6 mouse at 3 mg/kg, po measured after 24 hrs. Format: ADME, organism-based. The conditions noted are these: read-out: BPR.
The nature of data set [42]: Drug concentration in C57BL/6 mouse brain at 3 mg/kg, po measured after 3 hrs. Format: ADME, organism-based. The conditions noted are these: read-out: Ct.
Data set [43] is described as follows: Drug concentration in C57BL/6 mouse brain at 1 mg/kg, po measured after 24 hrs. The conditions noted are these: read-out: Ct. Format: ADME, organism-based.
Data set [44] can be described thus: Ratio of drug concentration in brain to plasma in C57BL/6 mouse at 30 mg/kg, po measured at 8 hrs. Format: ADME, organism-based. The conditions noted are these: read-out: BPR.
A short description of data set [45]: Ratio of drug concentration in brain to plasma in C57BL/6 mouse at 10 mg/kg, po measured at 8 hrs. Format: ADME, organism-based. The conditions noted are these: read-out: BPR.

In the case of `C[C@@H]1COCCN1c1cc(N2CCOC[C@@H]2C)nc2[nH]c(-c3ccccn3)nc12`, the “inhibition (INH)” value in data set [1] was “Active”; in data set [4] it was “Active”; in [8], “Not Active”. In data set [2], this compound had a half-life of 1.9 h. Moreover, the Vdss in data set [3] was found to be 4.3 L/kg. Also, the values for the AUC(0-t) at 24 h in data set [5] and in [7] were 0.056 µM·h and 0.125 µM·h, respectively. Moreover, the peak level in data set [6] (Cmax) was 13 nM. The Tmax in data set [9] was found to be 0.8 h. In addition, the clearance in data set [10] came to 19 mL/min/kg. In data set [11], the bioavailability turned out to be 11%.

`C[C@@H]1COCCN1c1cc(N2CCOC[C@@H]2C)nc2[nH]c(-c3cscn3)nc12`: the bioavailability in [12] stood at 110%. Besides, the concentration at 1 h was 1400 nM in [13], 388 nM in data set [17] and 2750 nM in data set [26]. The concentration at 8 h was found to be 462 nM in [14]; 1190 nM in [16]; 246 nM in data set [30]; 90 nM in data set [32]; 341 nM in data set [35]. The Tmax in [15] amounted to 1.2 h. Besides, the Cmax in data set [18] stood at 468 nM. Besides, the concentration at 24 h was found to be 130 nM in data set [19]; 4 nM in [33]; 6 nM in [38]; 5 nM in [40]; 7 nM in data set [43]. In addition, the “inhibition (INH)” value in data set [20], in [31] and in [37] was “Active” each time. Moreover, in [21], the Kp at 3 h was determined as 0.45. Further, in data set [22], the half-life is 5 h. Also, the concentration at 3 h in data set [23] worked out at 240 nM; in data set [27] it was 674 nM; in data set [39] it was 2050 nM; in data set [42], 930 nM. In data set [24], this compound came in with an AUC(0-t) at 24 h of 0.34 µM·h. Moreover, the Kp at 24 h in [25] came to 0.62; in data set [29], 1.91; in data set [41] it was 0.84. The Kp at 8 h in [28] turned out to be 0.29; in [36], 0.37; in data set [44], 0.73; in data set [45] it was 0.57. For the same compound, the Vdss in [34] was 3 L/kg.
